Where two headings read alike, the source gives them in different places.
Assays:
Assay type in all cases: cell-based, HIV-1
[1] = test system: Recombinant wild type HIV strain recIIIB; experiment: Antiviral MT4/MTT assay with reference virus recIIIB
Description: (§1) After titration of the new viruses, the stocks were used for antiviral experiments in the presence of serial dilutions of different HIV inhibitors. Titres of the harvested supematants were determined by limited serial dilution titration of virus in MT4 cells.
(§2) Viruses with a useful titre were used in antiviral experiments. For this purpose, 96-well microtitre plates were filled with 100μl of complete culture medium. Subsequently, stock solutions of compounds were added in 25 μl volumes to series of duplicate wells. HIV- and mock-infected cell samples were included for each drug (or drug combination). Exponentially growing MT4 cells were then transferred to the microtitre plates at a density of 150,000 cells/ml. The cell cultures were then incubated at 37° C. in a humidified atmosphere of 5% CO2. Five days after infection, the viability of the mock- and HIV-infected cells was examined spectrophotometrically by the M1T method (Pauwels, R. et al. J. Virol. Meth. (1988), 20: 309-321) as described in Section 6 below.
(§3) To each well of the microtiter plates, 20 μl of a solution of MTT (7.5 mg/ml in PBS) was added. The plates were further incubated at 37° C. for 1 h. Then, 150 μl of medium was removed without disturbing the MT4 cell clusters containing the formazan crystals. Solubilization of the formazan crystals was achieved by adding 100 μl 5% Triton X-100 in acidified isopropanol (5 ml concentrated HCl per liter solvent). Complete dissolution of the formazan crystals was obtained after the plates had been placed on a plate shaker for 10 min. Finally the absorbances were read at two wavelengths (540 and 690 nm). From these optical density (OD) data, 50% inhibitory (IC50) and 50% cytotoxic (CC50) concentrations were derived.

[2] = test system: recombinant virus from patient viral RNA (Example 5, 3TC resistant HIV strains); experiment: Recombinant virus assay (MT4/MTT), patient of Example 5 (AZT, then AZT+3TC therapy); conditions: for IC50: Human immunodeficiency virus 1, Table 1, Example 5 patient virus; for ratio (1)/(2): Table 1, patient mean IC50 / recIIIB IC50, Example 5
Description: (§4) RNA was isolated from 100 μl of plasma according to the method described by Boom, R. et al. (1990, supra), and was reverse transcribed with the GeneAmp reverse transcriptase kit (Perkin Elmer) as described by the manufacturer and using an HIV-1 specific downstream primer (OUT3: 5′-CATTGCTCTCCAATTACTGTGATATTTCTCATC-3′; SEQ ID NO: 1). PCR on reverse transcribed RNA was performed with inner and outer primers as described by Kellam, P. and Larder, B. A. (1994, supra). After chloroform extraction and centrifugation on Centricon 100 columns or centrifugation on anion-exchange spin columns (Quiagen), the isolated PCR product was ready for use in the transfection reactions.
(§5) MT4 cells were subcultured at a density of 250,000 cells/ml before transfection (exponential growth phase). Cells were pelleted and resuspended in phosphate buffered saline (PBS) at a concentration of […]. A 0.8 ml portion (2.5 10E6 cells/ml) was used for each transfection. Transfection was performed with the Bio-Rad Gene pulser making use of 0.4 cm electrode cuvettes. Cells were electroporated in the presence of […] of linearised pHIVΔRT plasmid and approximately 5 μg of RT PCR product at 250SF and 300 V, followed by a 30-min incubation at room temperature. Subsequently, 10 ml of fresh culture medium was added to the cell suspension and incubation was performed at 37° C. in a humidified atmosphere of 5% CO2.
(§6) During 7 to 10 days following the transfection, cells were monitored for the appearance of cytopathogenic effect (CPE). In the absence thereof, cells were subcultured in different flasks. Subsequently, culture supernatants of transfected cells were used to create a stock of recombinant virus and stored in 1.5 ml aliquots at −70° C.
as §1, §2, §3
An HIV infected patient who received AZT from December 1989 until an undocumented later date, and switched to a combined chemotherapy of AZT+3TC (1:1) from February 1994 until October 1995 donated plasma whose susceptibility to a number of RT inhibitors was determined according to the above described protocol of Example 1. Recombinant wild type HIV strain recIIIB was used in said protocol as a reference HIV virus.

[3] = test system: recombinant virus from patient viral RNA (Example 6, drug-naive patient); experiment: Recombinant virus assay (MT4/MTT), drug-naive patient of Example 6; conditions: for IC50: Human immunodeficiency virus 1, Table 2, Example 6 patient virus; for ratio (1)/(2): Table 2, patient mean IC50 / recIIIB IC50, Example 6
Description: as §4, §5, §6, §1, §2, §3
A drug-naive HIV infected patient donated plasma whose susceptibility to a number of RT inhibitors was determined according to the above described protocol of Example 1. Recombinant wild type HIV strain recIIIB was used in said protocol as a reference HIV virus.

[4] = test system: recombinant virus from patient viral RNA (Example 7, drug-naive patient); experiment: Recombinant virus assay (MT4/MTT), drug-naive patient of Example 7; conditions: for IC50: Human immunodeficiency virus 1, Table 3, Example 7 patient virus; for ratio (1)/(2): Table 3, patient mean IC50 / recIIIB IC50, Example 7
Description: as §4, §5, §6, §1, §2, §3
A drug-naive HIV-infected patient donated plasma whose susceptibility to a number of RT inhibitors was determined according to the protocol set out in Example 1. Recombinant wild type HIV strain recIIIB was used as a reference HIV virus.

[5] = test system: recombinant virus from patient viral RNA (Example 8); experiment: Recombinant virus assay (MT4/MTT), patient of Example 8 (therapy history AZT, 3TC and loviride); conditions: for IC50: Human immunodeficiency virus 1, Table 4, Example 8 patient virus; for ratio (1)/(2): Table 4, patient mean IC50 / recIIIB IC50, Example 8
Description: as §4, §5, §6, §1, §2, §3
(§7) An HIV-infected patient with a therapy history including AZT, 3TC and loviride donated plasma whose susceptibility to a number of RT inhibitors was determined according to the protocol set out in Example 1. Recombinant wild type HIV strain recIIIB was used as a reference HIV virus.

[6] = test system: recombinant virus from patient viral RNA (Example 9); experiment: Recombinant virus assay (MT4/MTT), patient of Example 9 (multiple nucleoside analogue RT-inhibitors); conditions: for IC50: Human immunodeficiency virus 1, Table 5, Example 9 patient virus; for ratio (1)/(2): Table 5, patient mean IC50 / recIIIB IC50, Example 9
Description: as §4, §5, §6, §1, §2, §3
as §7, with “multiple nucleoside analogue RT-inhibitors” for “AZT, 3TC and loviride”

[7] = Human immunodeficiency virus 1, Table 1, reference run of Example 5, read-out: Anti-HIV-1 activity IC50 (μM) recIIIB ref (2)
[8] = Human immunodeficiency virus 1, Table 2, reference run of Example 6, read-out: Anti-HIV-1 activity IC50 (μM) recIIIB ref (2)
[9] = Human immunodeficiency virus 1, Table 3, reference run of Example 7, read-out: Anti-HIV-1 activity IC50 (μM) recIIIB ref (2)
[10] = Human immunodeficiency virus 1, Table 4, reference run of Example 8, read-out: Anti-HIV-1 activity IC50 (μM) recIIIB ref (2)
[11] = Human immunodeficiency virus 1, Table 5, reference run of Example 9, read-out: Anti-HIV-1 activity IC50 (μM) recIIIB ref (2)
[12] = Human immunodeficiency virus 1, Table 6, reference run of Example 10, read-out: Anti-HIV-1 activity IC50 (μM) recIIIB ref (2)
[13] = MT4 cells, read-out: Anti-HIV-1 activity IC50 (μM) Exp. 1
[14] = MT4 cells, read-out: Anti-HIV-1 activity IC50 (μM) Exp. 2
[15] = mean of Exp. 1 and 2, read-out: Anti-HIV-1 activity IC50 (μM) Mean (1)
[16] = mean, read-out: Anti-HIV-1 activity IC50 (μM) Mean (1)

Compound | IC50 [1, 7] | IC50 [1, 8] | IC50 [1, 9] | IC50 [1, 10] | IC50 [1, 11] | IC50 [2, 13] | IC50 [2, 14] | IC50 [2, 15] | ratio (1)/(2) [2] | IC50 [3, 13] | IC50 [3, 14] | IC50 [3, 15] | ratio (1)/(2) [3] | IC50 [4, 13] | IC50 [4, 16] | ratio (1)/(2) [4] | IC50 [5, 13] | IC50 [5, 14] | IC50 [5, 16] | ratio (1)/(2) [5] | further results
Nc1ccn([C@@H]2CS[C@H](CO)O2)c(=O)n1 [3TC, lamivudine] | 0.56 µM | 3.08 µM | 1.38 µM | 6.3 µM | 16.7 µM | 31.6 µM | 100 µM | 65.8 µM | 118 | 1.81 µM | 2.02 µM | 1.91 µM | 1 | 2.17 µM | 2.17 µM | 2 | > 100 µM | > 100 µM | > 100 µM | >16 | IC50 [1, 12]: 4.61 µM; IC50 ([1]; Human immunodeficiency virus 1, read-out: Anti-HIV-1 activity IC50 (μM) recIIIB ref (2), Table 7, reference run of Example 11): 5.18 µM; IC50 ([1]; Human immunodeficiency virus 1, read-out: Anti-HIV-1 activity IC50 (μM) recIIIB ref (2), Table 8, reference run of Example 12): 4.61 µM; IC50 [6, 13]: > 100 µM; IC50 [6, 14]: > 100 µM; IC50 [6, 16]: > 100 µM; ratio (1)/(2) [6]: >6
Nc1ccn([C@H]2CC[C@@H](CO)O2)c(=O)n1 [ddC, zalcitabine] | 0.38 µM | 2.21 µM | 1.62 µM | 1.93 µM | 3.44 µM | 0.2 µM | 0.2 µM | 0.2 µM | 0.5 | 1.45 µM | 1.47 µM | 1.46 µM | 1 | 1.04 µM | 1.22 µM | 0.8 | 9.29 µM | 8.51 µM | 8.9 µM | 5 | IC50 [4, 14]: 1.39 µM; IC50 [6, 13]: 60.1 µM; IC50 [6, 14]: 73 µM; IC50 [6, 16]: 66.6 µM; ratio (1)/(2) [6]: 19
Cc1cn([C@H]2C[C@H](N=[N+]=[N-])[C@@H](CO)O2)c(=O)[nH]c1=O [AZT, zidovudine] | 0.004 µM | 0.06 µM | 0.023 µM | 0.084 µM | 0.291 µM | 0.001 µM | 0.002 µM | 0.002 µM | 0.4 | 0.04 µM | 0.05 µM | 0.05 µM | 1 | 0.052 µM | 0.051 µM | 2 | 18.3 µM | 22.3 µM | 20.3 µM | 241 | IC50 [1, 12]: 0.041 µM; IC50 ([1]; Human immunodeficiency virus 1, Table 7, reference run of Example 11, read-out: Anti-HIV-1 activity IC50 (μM) recIIIB ref (2)): 0.047 µM; IC50 ([1]; Human immunodeficiency virus 1, Table 8, reference run of Example 12, read-out: Anti-HIV-1 activity IC50 (μM) recIIIB ref (2)): 0.041 µM; IC50 [4, 14]: 0.05 µM; IC50 [6, 13]: > 100 µM; IC50 [6, 16]: > 100 µM; ratio (1)/(2) [6]: >344
O=c1[nH]cnc2c1ncn2[C@H]1CC[C@@H](CO)O1 [ddI, didanosinen] | 2.83 µM | 8.58 µM | 0.648 µM | 1.59 µM | 4.76 µM | 2 µM | 0.8 µM | 1.4 µM | 0.5 | 3.07 µM | 4.47 µM | 3.77 µM | 0.4 | 0.475 µM | 0.452 µM | 0.7 | 26.9 µM | 15.4 µM | 21.1 µM | 13 | IC50 [4, 14]: 0.429 µM; IC50 [6, 13]: > 100 µM; IC50 [6, 14]: > 100 µM; IC50 [6, 16]: > 100 µM; ratio (1)/(2) [6]: >21

Reference: patent US6528251B2, “Method of managing the chemotherapy of patients who are HIV positive based on the phenotypic drug sensitivity of human HIV strains” (Virco N.V., priority 1996, dated 2003)
